What was measured:
[1] = DRUGMATRIX: Interleukin IL-1 radioligand binding (ligand: [125I] interleukin 1beta); type: cell membranes, Membrane; details: nih3t3; Not Active = under 50% inhibition at 10 µM
Cytochrome P450 2E1 = Cytochrome P450 2E1 (Homo sapiens, UniProt P05181); details: bti-tn-5b1-4; further: in other assays of this panel Not Active means under 50% inhibition at 10 µM
[2] = target: T1, Muscarinic acetylcholine receptor M2 (Homo sapiens, UniProt P08172); type: cell membranes, CHO-K1, Membrane; details: cho-k1; further: in other assays of this panel Not Active means under 50% inhibition at 10 µM
T1 sequence (P08172 whole entry): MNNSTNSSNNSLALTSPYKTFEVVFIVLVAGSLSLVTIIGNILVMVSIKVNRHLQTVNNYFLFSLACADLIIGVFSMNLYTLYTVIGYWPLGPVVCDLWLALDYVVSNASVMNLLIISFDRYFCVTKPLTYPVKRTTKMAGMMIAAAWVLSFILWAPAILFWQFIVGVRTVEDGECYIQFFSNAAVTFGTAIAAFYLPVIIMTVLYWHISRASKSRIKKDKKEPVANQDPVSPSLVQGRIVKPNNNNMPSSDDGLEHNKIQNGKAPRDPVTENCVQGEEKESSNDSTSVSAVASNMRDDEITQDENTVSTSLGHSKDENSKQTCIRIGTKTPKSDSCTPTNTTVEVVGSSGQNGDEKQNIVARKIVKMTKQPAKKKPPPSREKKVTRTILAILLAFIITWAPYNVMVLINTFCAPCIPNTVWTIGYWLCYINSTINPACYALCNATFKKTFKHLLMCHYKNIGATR

Cathepsin G = target: T2, Cathepsin G (Homo sapiens, UniProt P08311); type: tissue-based; details: neutrophil;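 further: inhibition of Cathepsin G enzyme activity, tested on an AMC-conjugated peptide substrate; in other assays of this panel Not Active means under 50% inhibition at 10 µM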
T2 sequence (P08311 whole entry): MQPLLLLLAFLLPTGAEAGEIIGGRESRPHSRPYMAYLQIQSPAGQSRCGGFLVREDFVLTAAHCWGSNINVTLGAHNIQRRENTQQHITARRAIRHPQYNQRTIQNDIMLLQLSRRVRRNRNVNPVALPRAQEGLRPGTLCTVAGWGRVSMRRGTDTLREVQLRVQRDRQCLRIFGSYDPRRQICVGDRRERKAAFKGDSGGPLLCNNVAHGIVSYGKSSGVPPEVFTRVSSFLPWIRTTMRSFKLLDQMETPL

[3] = DRUGMATRIX: Potassium Channel [KATP] radioligand binding (ligand: [3H] Glyburide); type: cell membranes, Membrane; details: hit-t15; Not Active = under 50% inhibition at 10 µM
[4] = target: T3, Muscarinic acetylcholine receptor M4 (Homo sapiens, UniProt P08173); type: cell membranes, CHO-K1, Membrane; details: cho-k1; further: in other assays of this panel Not Active means under 50% inhibition at 10 µM
T3 sequence (P08173 whole entry): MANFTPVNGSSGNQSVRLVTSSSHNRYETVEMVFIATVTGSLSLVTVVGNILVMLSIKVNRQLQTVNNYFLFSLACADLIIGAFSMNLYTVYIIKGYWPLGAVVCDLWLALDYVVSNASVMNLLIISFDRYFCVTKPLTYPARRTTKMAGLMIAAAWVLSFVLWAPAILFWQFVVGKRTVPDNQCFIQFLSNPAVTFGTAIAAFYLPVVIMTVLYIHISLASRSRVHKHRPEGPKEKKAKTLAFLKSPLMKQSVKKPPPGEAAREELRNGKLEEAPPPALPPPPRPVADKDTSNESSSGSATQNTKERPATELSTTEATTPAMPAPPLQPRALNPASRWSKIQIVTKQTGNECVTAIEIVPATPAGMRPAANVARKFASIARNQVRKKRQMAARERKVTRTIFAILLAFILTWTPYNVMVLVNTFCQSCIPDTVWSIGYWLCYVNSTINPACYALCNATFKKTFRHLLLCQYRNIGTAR

Cytochrome P450 2A6 = target: T4, Cytochrome P450 2A6 (Homo sapiens, UniProt P11509); details: bti-tn-5b1-4; further: in other assays of this panel Not Active means under 50% inhibition at 10 µM
T4 sequence (P11509 whole entry): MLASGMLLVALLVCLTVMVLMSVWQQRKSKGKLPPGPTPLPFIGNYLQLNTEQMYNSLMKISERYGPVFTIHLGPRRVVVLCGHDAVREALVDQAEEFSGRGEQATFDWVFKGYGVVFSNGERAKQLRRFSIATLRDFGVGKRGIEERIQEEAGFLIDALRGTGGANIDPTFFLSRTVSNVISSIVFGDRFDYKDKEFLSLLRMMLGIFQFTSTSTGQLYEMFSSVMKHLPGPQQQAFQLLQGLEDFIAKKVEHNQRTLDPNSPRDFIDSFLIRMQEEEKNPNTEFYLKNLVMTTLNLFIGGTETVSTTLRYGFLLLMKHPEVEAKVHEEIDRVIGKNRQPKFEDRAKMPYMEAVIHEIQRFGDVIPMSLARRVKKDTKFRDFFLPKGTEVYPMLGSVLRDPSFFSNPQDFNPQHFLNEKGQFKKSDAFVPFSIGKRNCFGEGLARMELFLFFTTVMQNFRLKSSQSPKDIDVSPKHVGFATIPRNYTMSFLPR

Chain of Cytochrome P450 2E1 (P05181 whole entry): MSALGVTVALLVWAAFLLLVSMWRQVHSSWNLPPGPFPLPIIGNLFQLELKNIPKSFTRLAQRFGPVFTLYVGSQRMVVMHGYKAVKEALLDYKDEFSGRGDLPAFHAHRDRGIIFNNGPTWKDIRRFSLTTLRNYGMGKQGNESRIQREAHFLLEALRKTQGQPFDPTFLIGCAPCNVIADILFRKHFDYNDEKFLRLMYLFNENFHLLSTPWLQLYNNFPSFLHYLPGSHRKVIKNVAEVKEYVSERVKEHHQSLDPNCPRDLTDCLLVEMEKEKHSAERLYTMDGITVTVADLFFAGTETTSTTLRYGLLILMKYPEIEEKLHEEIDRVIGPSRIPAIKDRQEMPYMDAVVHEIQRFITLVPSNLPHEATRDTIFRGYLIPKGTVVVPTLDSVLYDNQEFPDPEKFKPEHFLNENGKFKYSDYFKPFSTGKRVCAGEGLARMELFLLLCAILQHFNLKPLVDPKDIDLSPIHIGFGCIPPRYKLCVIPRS

OCCO [ETHYLENE GLYCOL]
Not Active: IC50 [1] | Ki [1] | IC50 (Cytochrome P450 2E1) | Ki (Cytochrome P450 2E1) | IC50 [2] | IC50 (Cathepsin G) | IC50 [3] | Ki [3] | IC50 [4] | IC50 (Cytochrome P450 2A6) | Ki (Cytochrome P450 2A6)

CC(=O)OCC(CCn1cnc2cnc(N)nc21)COC(C)=O [FAMCICLOVIR]
Not Active: IC50 [1] | Ki [1] | IC50 (Cytochrome P450 2E1) | Ki (Cytochrome P450 2E1) | IC50 [2] | IC50 (Cathepsin G) | IC50 [3] | Ki [3] | IC50 [4] | IC50 (Cytochrome P450 2A6) | Ki (Cytochrome P450 2A6)

O=C(O)Cc1ccc(-c2ccccc2)cc1 [FELBINAC]
Not Active: IC50 [1] | Ki [1] | IC50 (Cytochrome P450 2E1) | Ki (Cytochrome P450 2E1) | IC50 [2] | IC50 (Cathepsin G) | IC50 [3] | Ki [3] | IC50 [4] | IC50 (Cytochrome P450 2A6) | Ki (Cytochrome P450 2A6)

CCOC(=O)C1=C(C)NC(C)=C(C(=O)OC)C1c1cccc(Cl)c1Cl (stereo not drawn) [FELODIPINE]
Not Active: IC50 [1] | Ki [1] | IC50 (Cytochrome P450 2E1) | Ki (Cytochrome P450 2E1) | IC50 [2] | IC50 (Cathepsin G) | IC50 [3] | Ki [3] | IC50 [4] | IC50 (Cytochrome P450 2A6) | Ki (Cytochrome P450 2A6)

CC(C(=O)O)c1ccc(-c2ccccc2)c(F)c1 (stereo not drawn) [FLURBIPROFEN]
Not Active: IC50 [1] | Ki [1] | IC50 (Cytochrome P450 2E1) | Ki (Cytochrome P450 2E1) | IC50 [2] | IC50 (Cathepsin G) | IC50 [3] | Ki [3] | IC50 [4] | IC50 (Cytochrome P450 2A6) | Ki (Cytochrome P450 2A6)

NC[C@@H]1O[C@H](O[C@H]2[C@@H](O)[C@H](O[C@@H]3[C@@H](O)[C@H](N)C[C@H](N)[C@H]3O[C@H]3O[C@H](CN)[C@@H](O)[C@H](O)[C@H]3N)O[C@@H]2CO)[C@H](N)[C@@H](O)[C@@H]1O [FRAMYCETIN]
Not Active: IC50 [1] | Ki [1] | IC50 (Cytochrome P450 2E1) | Ki (Cytochrome P450 2E1) | IC50 [2] | IC50 (Cathepsin G) | IC50 [3] | Ki [3] | IC50 [4] | IC50 (Cytochrome P450 2A6) | Ki (Cytochrome P450 2A6)

C[C@H]([C@](O)(Cn1cncn1)c1ccc(F)cc1F)S(C)(=O)=O [GENACONAZOLE]
Not Active: IC50 [1] | Ki [1] | IC50 (Cytochrome P450 2E1) | Ki (Cytochrome P450 2E1) | IC50 [2] | IC50 (Cathepsin G) | IC50 [3] | Ki [3] | IC50 [4] | IC50 (Cytochrome P450 2A6) | Ki (Cytochrome P450 2A6)

Cc1c(F)c(N2CCNC(C)C2)cc2c1c(=O)c(C(=O)O)cn2C1CC1 (stereo not drawn) [GREPAFLOXACIN]
Not Active: IC50 [1] | Ki [1] | IC50 (Cytochrome P450 2E1) | Ki (Cytochrome P450 2E1) | IC50 [2] | IC50 (Cathepsin G) | IC50 [3] | Ki [3] | IC50 [4] | IC50 (Cytochrome P450 2A6) | Ki (Cytochrome P450 2A6)

N=C(N)N/N=C/c1c(Cl)cccc1Cl [GUANABENZ]
Not Active: IC50 [1] | Ki [1] | IC50 (Cytochrome P450 2E1) | Ki (Cytochrome P450 2E1) | IC50 [2] | IC50 (Cathepsin G) | IC50 [3] | Ki [3] | IC50 [4] | IC50 (Cytochrome P450 2A6) | Ki (Cytochrome P450 2A6)

C[C@]12CCC(=O)C=C1CC[C@@H]1[C@@H]2[C@@H](O)C[C@@]2(C)[C@H]1CC[C@]2(O)C(=O)CO [HYDROCORTISONE]
Not Active: IC50 [1] | Ki [1] | IC50 (Cytochrome P450 2E1) | Ki (Cytochrome P450 2E1) | IC50 [2] | IC50 (Cathepsin G) | IC50 [3] | Ki [3] | IC50 [4] | IC50 (Cytochrome P450 2A6) | Ki (Cytochrome P450 2A6)

NC[C@H]1O[C@H](O[C@H]2[C@H](O)[C@@H](O[C@H]3O[C@H](CO)[C@@H](O)[C@H](N)[C@H]3O)[C@H](N)C[C@@H]2N)[C@H](O)[C@@H](O)[C@@H]1O [KANAMYCIN]
Not Active: IC50 [1] | Ki [1] | IC50 (Cytochrome P450 2E1) | Ki (Cytochrome P450 2E1) | IC50 [2] | IC50 (Cathepsin G) | IC50 [3] | Ki [3] | IC50 [4] | IC50 (Cytochrome P450 2A6) | Ki (Cytochrome P450 2A6)

CC(C(=O)O)c1ccc(CC2CCCC2=O)cc1 (stereo not drawn) [LOXOPROFEN]
Not Active: IC50 [1] | Ki [1] | IC50 (Cytochrome P450 2E1) | Ki (Cytochrome P450 2E1) | IC50 [2] | IC50 (Cathepsin G) | IC50 [3] | Ki [3] | IC50 [4] | IC50 (Cytochrome P450 2A6) | Ki (Cytochrome P450 2A6)

Cc1cccc(Nc2ccccc2C(=O)O)c1C [MEFENAMIC ACID]
Not Active: IC50 [1] | Ki [1] | IC50 (Cytochrome P450 2E1) | Ki (Cytochrome P450 2E1) | IC50 [2] | IC50 (Cathepsin G) | IC50 [3] | Ki [3] | IC50 [4] | IC50 (Cytochrome P450 2A6) | Ki (Cytochrome P450 2A6)

Source: ChEMBL document CHEMBL1909046, “DrugMatrix in vitro pharmacology data”
